Experimental data published in US7875647B2, “Heteroaryl-pyrazole derivatives as cannabinoid CB1 receptor antagonists” (Green Cross Corporation, priority 2006, dated 2011).

Target: T1, Cannabinoid-1 receptor (CB1R) (Rattus norvegicus, UniProt P20272)
T1 construct: The tissue obtained from the brain of SD rats was homogenized; from tissue; host or cells: brain of SD rats (membrane pellet of the homogenate)
Assay: Cannabinoid-1 receptor (CB1R) binding affinity assay ([3H]CP-55940, rat CB-1 receptor binding protocol)
Conditions: IC50(nM), brain tissue of SD rats, [3H]CP-55940, 30° C. 60 min
Protocol: The tissue obtained from the brain of SD rats was homogenized with a Dounce homogenate system in TME (50 mM Tris, 3 mM MgCl2 and 1 mM EDTA, pH 7.4) at 4° C., and the homogenate was centrifuged at 48,000 g for 30 min. at 4° C. The pellet was resuspended in 5 ml of TME and the suspension was divided into aliquots and stored at −70° C. until its use in the following assay.
The tissue concentrations were determined by Bradford protein analysis, and 148 μl of brain tissue of the required concentration was added to the plate. The plate was covered and placed in a 30° C. incubator for 60 min, and then transformed on GF/B filtermat pretreated in polyethylenimine (PEI) using a cell harvester. Each filter was washed five times and dried at 60° C. for 1 hr. Then, the degree of radioactivity retained by the filter was measured using Wallac Microbeta™ (PerkinElmer Life Sciences, Inc., Massachusetts, U.S.A.) and the activity of the compound for inhibiting CB1 receptor was determined therefrom.

T1 sequence (P20272 whole entry): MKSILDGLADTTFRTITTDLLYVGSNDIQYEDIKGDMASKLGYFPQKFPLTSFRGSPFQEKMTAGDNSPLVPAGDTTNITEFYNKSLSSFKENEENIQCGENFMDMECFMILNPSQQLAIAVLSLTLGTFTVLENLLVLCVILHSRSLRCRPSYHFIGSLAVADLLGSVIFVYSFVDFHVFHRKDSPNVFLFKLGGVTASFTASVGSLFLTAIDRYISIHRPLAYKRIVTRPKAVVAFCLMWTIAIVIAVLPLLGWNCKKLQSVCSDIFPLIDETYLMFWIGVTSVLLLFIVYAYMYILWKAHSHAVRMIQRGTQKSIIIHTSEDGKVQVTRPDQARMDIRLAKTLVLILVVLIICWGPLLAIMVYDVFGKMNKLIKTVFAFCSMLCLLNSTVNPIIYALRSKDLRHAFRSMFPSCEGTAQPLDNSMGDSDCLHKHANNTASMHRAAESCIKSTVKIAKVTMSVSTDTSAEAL

Compound | IC50
CCOC(C)(C)c1nnc(-c2nn(-c3ccc(Cl)cc3Cl)c(-c3ccc(Cl)cc3)c2C)o1 [Example 116, 2-(5-(4-chlorophenyl)-1-(2,4-dichlorophenyl)-4-methyl-1H-pyrazol-3-yl)-5-(2-ethoxypropan-2-yl)-1,3,4-oxadiazole] | 23.9 nM

Same assay, conditions: brain tissue of SD rats, [3H]CP-55940, 30° C. 60 min; read-out: IC50

Compound | IC50
2-(1-benzylcyclopropyl)-5-(5-(4-bromophenyl)-1-(2,4-dichlorophenyl)-4-ethyl-1H-pyrazol-3-yl)-1,3,4-oxadiazole [Example 271] | 5.88 nM
2-(1-benzylcyclopropyl)-5-(5-(4-chlorophenyl)-1-(2,4-dichlorophenyl)-4-methyl-1H-pyrazol-3-yl)-1,3,4-thiadiazole [Example 467] | 14.8 nM
2-(5-(4-chlorophenyl)-1-(2,4-dichlorophenyl)-4-methyl-1H-pyrazol-3-yl)-5-cyclohexyl-1,3,4-thiadiazole [Example 347] | 51.3 nM
5-(5-(4-Chlorophenyl)-1-(2,4-dichlorophenyl)-4-methyl-1H-pyrazol-3-yl)-1-cycloheptyl-1H-tetrazole [Example 601] | 26.7 nM
5-(5-(4-Chlorophenyl)-1-(2,4-dichlorophenyl)-4-methyl-1H-pyrazol-3-yl)-1-octyl-1H-tetrazole [Example 604] | 47.3 nM
Cc1c(-c2nnc(-c3ccncc3)o2)nn(-c2ccc(Cl)cc2Cl)c1-c1ccc(Cl)cc1 [Example 2, 2-(5-(4-chlorophenyl)-1-(2,4-dichlorophenyl)-4-methyl-1H-pyrazol-3-yl)-5-(pyridin-4-yl)-1,3,4-oxadiazole] | 563 nM
Cc1c(-c2nnc(-c3ccco3)o2)nn(-c2ccc(Cl)cc2Cl)c1-c1ccc(Cl)cc1 [Example 8, 2-(5-(4-chlorophenyl)-1-(2,4-dichlorophenyl)-4-methyl-1H-pyrazol-3-yl)-5-(furan-2-yl)-1,3,4-oxadiazole] | 112 nM
Cc1c(-c2nnc(-c3cnccn3)o2)nn(-c2ccc(Cl)cc2Cl)c1-c1ccc(Cl)cc1 [Example 10, 2-(5-(4-chlorophenyl)-1-(2,4-dichlorophenyl)-4-methyl-1H-pyrazol-3-yl)-5-(pyrazin-2-yl)-1,3,4-oxadiazole] | 196 nM
Cc1c(-c2nnc(-c3cccs3)o2)nn(-c2ccc(Cl)cc2Cl)c1-c1ccc(Cl)cc1 [Example 11, 2-(5-(4-chlorophenyl)-1-(2,4-dichlorophenyl)-4-methyl-1H-pyrazol-3-yl)-5-(thiophen-2-yl)-1,3,4-oxadiazole] | 96.6 nM
Cc1c(-c2nnc(-c3cc4ccccc4o3)o2)nn(-c2ccc(Cl)cc2Cl)c1-c1ccc(Cl)cc1 [Example 18, 2-(Benzofuran-2-yl)-5-(5-(4-chlorophenyl)-1-(2,4-dichlorophenyl)-4-methyl-1H-pyrazol-3-yl)-1,3,4-oxadiazole] | 333 nM
Cc1c(-c2nnc(CC3CCCC3)o2)nn(-c2ccc(Cl)cc2Cl)c1-c1ccc(Cl)cc1 [Example 22, 2-(5-(4-Chlorophenyl)-1-(2,4-dichlorophenyl)-4-methyl-1H-pyrazol-3-yl)-5-(cyclopentylmethyl)-1,3,4-oxadiazole] | 35.7 nM
Cc1c(-c2nnc(C3CCOCC3)o2)nn(-c2ccc(Cl)cc2Cl)c1-c1ccc(Cl)cc1 [Example 23, 2-(5-(4-Chlorophenyl)-1-(2,4-dichlorophenyl)-4-methyl-1H-pyrazol-3-yl)-5-(tetrahydro-2H-pyran-4-yl)-1,3,4-oxadiazole] | 163 nM
Cc1c(-c2nnc(CC3CCCCC3)o2)nn(-c2ccc(Cl)cc2Cl)c1-c1ccc(Cl)cc1 [Example 24, 2-(5-(4-Chlorophenyl)-1-(2,4-dichlorophenyl)-4-methyl-1H-pyrazol-3-yl)-5-(cyclohexylmethyl)-1,3,4-oxadiazole] | 22.7 nM
Cc1c(-c2nnc(C3CCCO3)o2)nn(-c2ccc(Cl)cc2Cl)c1-c1ccc(Cl)cc1 (centres unmarked) [Example 25, 2-(5-(4-Chlorophenyl)-1-(2,4-dichlorophenyl)-4-methyl-1H-pyrazol-3-yl)-5-(tetrahydrofuran-2-yl)-1,3,4-oxadiazole] | 60 nM
Cc1c(-c2nnc(C3CC4CCC3C4)o2)nn(-c2ccc(Cl)cc2Cl)c1-c1ccc(Cl)cc1 (centres unmarked) [Example 52, 2-(bicyclo[2.2.1]heptan-2-yl)-5-(5-(4-chlorophenyl)-1-(2,4-dichlorophenyl)-4-methyl-1H-pyrazol-3-yl)-1,3,4-oxadiazole] | 12.7 nM
Cc1c(-c2nnc(C(C)CC3CCC3)o2)nn(-c2ccc(Cl)cc2Cl)c1-c1ccc(Cl)cc1 (centres unmarked) [Example 54, 2-(5-(4-chlorophenyl)-1-(2,4-dichlorophenyl)-4-methyl-1H-pyrazol-3-yl)-5-(1-cyclobutylpropan-2-yl)-1,3,4-oxadiazole] | 11.2 nM

Compound | IC50
CCc1c(-c2nnc(CC3CCCCC3)o2)nn(-c2ccc(Cl)cc2Cl)c1-c1ccc(Br)cc1 [Example 55, 2-(5-(4-bromophenyl)-1-(2,4-dichlorophenyl)-4-ethyl-1H-pyrazol-3-yl)-5-(cyclohexylmethyl)-1,3,4-oxadiazole] | 10.3 nM
Cc1c(-c2nnc(CC3CCCCC3)o2)nn(-c2ccc(Cl)cc2Cl)c1-c1ccc(Br)cc1 [Example 56, 2-(5-(4-bromophenyl)-1-(2,4-dichlorophenyl)-4-methyl-1H-pyrazol-3-yl)-5-(cyclohexylmethyl)-1,3,4-oxadiazole] | 37.6 nM
Cc1c(-c2nnc(C(C)C3CCCC3)o2)nn(-c2ccc(Cl)cc2Cl)c1-c1ccc(Cl)cc1 (centres unmarked) [Example 61, 2-(5-(4-chlorophenyl)-1-(2,4-dichlorophenyl)-4-methyl-1H-pyrazol-3-yl)-5-(1-cyclopentylethyl)-1,3,4-oxadiazole] | 22.2 nM
Cc1c(-c2nnc(C(C)C3CCCCC3)o2)nn(-c2ccc(Cl)cc2Cl)c1-c1ccc(Cl)cc1 (centres unmarked) [Example 62, 2-(5-(4-chlorophenyl)-1-(2,4-dichlorophenyl)-4-methyl-1H-pyrazol-3-yl)-5-(1-cyclohexylethyl)-1,3,4-oxadiazole] | 51.7 nM
Cc1c(-c2nnc(C(C)(C)C3CCCC3)o2)nn(-c2ccc(Cl)cc2Cl)c1-c1ccc(Cl)cc1 [Example 63, 2-(5-(4-chlorophenyl)-1-(2,4-dichlorophenyl)-4-methyl-1H-pyrazol-3-yl)-5-(2-cyclopentylpropan-2-yl)-1,3,4-oxadiazole] | 19.1 nM
Cc1c(-c2nnc(C(C)(C)C3CCCCC3)o2)nn(-c2ccc(Cl)cc2Cl)c1-c1ccc(Cl)cc1 [Example 64, 2-(5-(4-chlorophenyl)-1-(2,4-dichlorophenyl)-4-methyl-1H-pyrazol-3-yl)-5-(2-cyclohexylpropan-2-yl)-1,3,4-oxadiazole] | 15.2 nM
Cc1c(-c2nnc(C3(C)CC3(Cl)Cl)o2)nn(-c2ccc(Cl)cc2Cl)c1-c1ccc(Cl)cc1 (centres unmarked) [Example 65, 2-(5-(4-chlorophenyl)-1-(2,4-dichlorophenyl)-4-methyl-1H-pyrazol-3-yl)-5-(2,2-dichloro-1-methylcyclopropyl)-1,3,4-oxadiazole] | 12.4 nM
Cc1c(-c2nnc(C3(c4ccc(Cl)cc4)CC3)o2)nn(-c2ccc(Cl)cc2Cl)c1-c1ccc(Cl)cc1 [Example 67, 2-(5-(4-chlorophenyl)-1-(2,4-dichlorophenyl)-4-methyl-1H-pyrazol-3-yl)-5-(1-(4-chlorophenyl)cyclopropyl)-1,3,4-oxadiazole] | 8.61 nM
Cc1c(-c2nnc(C3(c4ccccc4)CC3)o2)nn(-c2ccc(Cl)cc2Cl)c1-c1ccc(Cl)cc1 [Example 71, 2-(5-(4-chlorophenyl)-1-(2,4-dichlorophenyl)-4-methyl-1H-pyrazol-3-yl)-5-(1-phenylcyclopropyl)-1,3,4-oxadiazole] | 11 nM
Cc1c(-c2nnc(C(C)(C)Oc3ccccn3)o2)nn(-c2ccc(Cl)cc2Cl)c1-c1ccc(Cl)cc1 [Example 80, 2-(5-(4-chlorophenyl)-1-(2,4-dichlorophenyl)-4-methyl-1H-pyrazol-3-yl)-5-(2-(pyridin-2-yloxy)propan-2-yl)-1,3,4-oxadiazole] | 36.1 nM
C=CCOCC(C)(C)c1nnc(-c2nn(-c3ccc(Cl)cc3Cl)c(-c3ccc(Cl)cc3)c2C)o1 [Example 97, 2-(1-(allyloxy)-2-methylpropan-2-yl)-5-(5-(4-chlorophenyl)-1-(2,4-dichlorophenyl)-4-methyl-1H-pyrazol-3-yl)-1,3,4-oxadiazole] | 15.7 nM
COC(C)(C)c1nnc(-c2nn(-c3ccc(Cl)cc3Cl)c(-c3ccc(Cl)cc3)c2C)o1 [Example 98, 2-(5-(4-chlorophenyl)-1-(2,4-dichlorophenyl)-4-methyl-1H-pyrazol-3-yl)-5-(2-methoxypropan-2-yl)-1,3,4-oxadiazole] | 33.7 nM
Cc1c(-c2nnc(C3(c4ccc(Cl)cc4)CCC3)o2)nn(-c2ccc(Cl)cc2Cl)c1-c1ccc(Cl)cc1 [Example 110, 2-(5-(4-chlorophenyl)-1-(2,4-dichlorophenyl)-4-methyl-1H-pyrazol-3-yl)-5-(1-(4-chlorophenyl)cyclobutyl)-1,3,4-oxadiazole] | 13 nM
CCc1c(-c2nnc(C3(c4ccc(Cl)cc4)CC3)o2)nn(-c2ccc(Cl)cc2Cl)c1-c1ccc(Br)cc1 [Example 111, 2-(5-(4-bromophenyl)-1-(2,4-dichlorophenyl)-4-ethyl-1H-pyrazol-3-yl)-5-(1-(4-chlorophenyl)cyclopropyl)-1,3,4-oxadiazole] | 3.96 nM
Cc1c(-c2nnc(C3(c4ccc(Cl)cc4)CC3)o2)nn(-c2ccccc2Cl)c1-c1ccc(Cl)cc1 [Example 112, 2-(1-(2-chlorophenyl)-5-(4-chlorophenyl)-4-methyl-1H-pyrazol-3-yl)-5-(1-(4-chlorophenyl)cyclopropyl)-1,3,4-oxadiazole] | 7.4 nM
